≈ marks a conversion by molar mass, not a printed value.
Legend:
[1] = in vivo; cited from earlier work
[2] = Capacity of drug loading of the electrospun polymer device; assay type: physicochemical; settings: larger quantities cause supersaturation of the solution
Source text: With time, the solvent would evaporate leaving a crystallized non-homogenous mixture of polymer and drug.

[3] = cited from earlier work
[4] = intravenous infusion, doses 30 to 170 mg/m^2; cited from earlier work

maximum amount of drug loaded in the electrospun polymer device [2]	SMILES	half-life [1]	water solubility [3]	average terminal half-life [4]	clearance [4]	steady-state volume of distribution [4]
5 wt %	COc1ccccc1OCC(O)CO (racemic) [Guaifenesin, (2RS)-3-(2-Methoxyphenoxy)propane-1,2-diol]	approximately 1 hour	50 mg/mL (≈ 252 mM)			
1 wt %	C[C@]12CC[C@@H]3c4ccc(O)cc4CC[C@H]3[C@@H]1CC[C@@H]2O [Beta-Estradiol, 17β-estradiol]					
	O=NN(CCCl)C(=O)NCCCl [BCNU]			22 min	56 mL/min/kg	3.25 L/kg
